From publication PMC4685510, “A Cell Biologist’s Field Guide to Aurora Kinase Inhibitors” (Frontiers in Oncology, 2015)
Where two headings read alike, the source gives them in different places.

Experiments:
Test in all cases: biochemical
Format in all cases: biochemical
[1] = biological target: 363 human kinases (including Aurora A/B/C) (Homo sapiens, UniProt P27361); details: ERK1, [ATP] 100 µM; for remaining activity at 0.1 µM: 100 nM; for remaining activity at 0.1 µM / remaining activity at 0.5 µM: read-out: % Enzyme Activity (relative to DMSO controls)
From the text: (§1) However, the Aurora A/B selectivity ratios derived from our in vitro and in vivo data can be compared to prioritize inhibitors.

[2] = biological target: 363 human kinases (including Aurora A/B/C) (Homo sapiens, UniProt P49674); details: CK1epsilon, [ATP] 50 µM; for remaining activity at 0.1 µM: 100 nM; for remaining activity at 0.1 µM / remaining activity at 0.5 µM: read-out: % Enzyme Activity (relative to DMSO controls)
From the text: as §1

[3] = biological target: 363 human kinases (including Aurora A/B/C) (Homo sapiens, UniProt Q02750); details: MEK1; for remaining activity at 0.1 µM: 100 nM; for remaining activity at 0.1 µM / remaining activity at 0.5 µM: read-out: % Enzyme Activity (relative to DMSO controls)
From the text: as §1

[4] = biological target: T1, 363 human kinases (including Aurora A/B/C) (Homo sapiens, UniProt Q09013); details: DMPK, [ATP] 15 µM; for remaining activity at 0.1 µM: 100 nM; for remaining activity at 0.1 µM / remaining activity at 0.5 µM: read-out: % Enzyme Activity (relative to DMSO controls)
T1 sequence (Q09013 1-629): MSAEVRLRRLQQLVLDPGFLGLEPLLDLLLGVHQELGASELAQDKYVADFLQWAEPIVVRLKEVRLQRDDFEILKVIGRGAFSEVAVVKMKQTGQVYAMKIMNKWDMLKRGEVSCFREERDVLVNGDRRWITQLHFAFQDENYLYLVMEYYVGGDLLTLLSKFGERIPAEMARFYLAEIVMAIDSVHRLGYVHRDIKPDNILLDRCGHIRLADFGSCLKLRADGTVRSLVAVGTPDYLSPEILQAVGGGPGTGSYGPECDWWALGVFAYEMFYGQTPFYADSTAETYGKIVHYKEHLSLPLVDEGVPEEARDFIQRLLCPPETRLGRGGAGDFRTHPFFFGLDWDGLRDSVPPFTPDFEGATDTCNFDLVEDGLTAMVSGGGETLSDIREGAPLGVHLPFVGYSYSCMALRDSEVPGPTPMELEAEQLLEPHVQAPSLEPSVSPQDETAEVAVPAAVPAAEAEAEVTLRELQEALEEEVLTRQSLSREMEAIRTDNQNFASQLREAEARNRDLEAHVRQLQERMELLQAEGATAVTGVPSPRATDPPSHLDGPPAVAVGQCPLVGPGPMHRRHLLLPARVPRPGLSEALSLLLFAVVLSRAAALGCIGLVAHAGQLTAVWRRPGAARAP
From the text: as §1

[5] = biological target: 363 human kinases (including Aurora A/B/C) (Homo sapiens, UniProt Q13557); details: CAMK2d, [ATP] 30 µM; for remaining activity at 0.1 µM: 100 nM; for remaining activity at 0.1 µM / remaining activity at 0.5 µM: read-out: % Enzyme Activity (relative to DMSO controls)
From the text: as §1

[6] = biological target: T2, 363 human kinases (including Aurora A/B/C) (Homo sapiens, UniProt Q32MK0); details: MYLK3; for remaining activity at 0.1 µM: 100 nM; for remaining activity at 0.1 µM / remaining activity at 0.5 µM: read-out: % Enzyme Activity (relative to DMSO controls)
T2 sequence (Q32MK0 1-819): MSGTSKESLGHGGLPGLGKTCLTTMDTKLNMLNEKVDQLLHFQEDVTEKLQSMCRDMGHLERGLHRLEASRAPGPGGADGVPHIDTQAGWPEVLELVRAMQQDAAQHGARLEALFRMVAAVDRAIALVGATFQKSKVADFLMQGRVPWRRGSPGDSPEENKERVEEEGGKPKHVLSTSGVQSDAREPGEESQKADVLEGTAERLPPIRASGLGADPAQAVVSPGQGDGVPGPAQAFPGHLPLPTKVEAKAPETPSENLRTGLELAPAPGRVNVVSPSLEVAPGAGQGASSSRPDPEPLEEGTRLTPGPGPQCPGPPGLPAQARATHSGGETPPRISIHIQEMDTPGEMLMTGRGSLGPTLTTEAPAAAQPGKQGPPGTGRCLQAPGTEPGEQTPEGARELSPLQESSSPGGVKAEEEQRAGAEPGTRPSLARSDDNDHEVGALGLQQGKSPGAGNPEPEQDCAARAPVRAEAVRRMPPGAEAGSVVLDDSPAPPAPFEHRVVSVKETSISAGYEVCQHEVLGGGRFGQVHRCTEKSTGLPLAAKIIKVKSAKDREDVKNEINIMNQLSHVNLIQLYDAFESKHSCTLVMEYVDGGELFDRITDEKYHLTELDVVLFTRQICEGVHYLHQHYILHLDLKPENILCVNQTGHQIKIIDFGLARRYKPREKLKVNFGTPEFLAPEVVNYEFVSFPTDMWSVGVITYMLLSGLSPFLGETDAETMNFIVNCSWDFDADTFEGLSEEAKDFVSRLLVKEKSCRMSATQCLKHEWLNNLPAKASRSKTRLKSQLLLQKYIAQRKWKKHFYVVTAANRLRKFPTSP
From the text: as §1

[7] = biological target: 363 human kinases (including Aurora A/B/C) (Homo sapiens, UniProt Q5S007); details: LRRK2; for remaining activity at 0.1 µM: 100 nM; for remaining activity at 0.1 µM / remaining activity at 0.5 µM: read-out: % Enzyme Activity (relative to DMSO controls)
From the text: as §1

[8] = biological target: T3, 363 human kinases (including Aurora A/B/C) (Homo sapiens, UniProt Q8TDC3); details: BRSK1, [ATP] 50 µM; for remaining activity at 0.1 µM: 100 nM; for remaining activity at 0.1 µM / remaining activity at 0.5 µM: read-out: % Enzyme Activity (relative to DMSO controls)
T3 sequence (Q8TDC3 1-778): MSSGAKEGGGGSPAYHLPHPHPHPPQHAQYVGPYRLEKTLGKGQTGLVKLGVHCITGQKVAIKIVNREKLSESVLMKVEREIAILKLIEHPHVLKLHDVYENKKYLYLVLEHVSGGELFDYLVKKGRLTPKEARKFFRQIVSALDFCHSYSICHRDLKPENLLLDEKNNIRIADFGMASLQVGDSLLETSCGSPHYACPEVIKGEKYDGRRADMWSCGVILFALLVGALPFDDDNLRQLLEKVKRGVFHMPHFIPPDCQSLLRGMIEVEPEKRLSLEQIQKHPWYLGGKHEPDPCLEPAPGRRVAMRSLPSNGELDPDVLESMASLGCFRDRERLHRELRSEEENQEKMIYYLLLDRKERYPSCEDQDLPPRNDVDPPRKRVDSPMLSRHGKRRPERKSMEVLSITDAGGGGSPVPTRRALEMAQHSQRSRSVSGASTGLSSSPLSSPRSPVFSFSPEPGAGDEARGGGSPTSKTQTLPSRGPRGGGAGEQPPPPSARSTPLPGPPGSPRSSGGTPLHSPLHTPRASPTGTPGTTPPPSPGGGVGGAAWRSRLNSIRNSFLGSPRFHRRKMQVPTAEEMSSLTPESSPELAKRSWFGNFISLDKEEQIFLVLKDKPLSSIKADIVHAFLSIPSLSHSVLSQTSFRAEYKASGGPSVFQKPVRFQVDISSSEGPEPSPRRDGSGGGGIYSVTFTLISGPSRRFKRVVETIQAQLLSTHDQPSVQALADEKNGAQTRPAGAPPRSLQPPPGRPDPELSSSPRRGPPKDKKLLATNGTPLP
From the text: as §1

[9] = biological target: 363 human kinases (including Aurora A/B/C) (Homo sapiens, UniProt Q96GD4); details: for remaining activity at 0.1 µM / remaining activity at 0.5 µM: read-out: % Enzyme Activity (relative to DMSO controls)
Sequence of 363 human kinases (including Aurora A/B/C) (Homo sapiens, UniProt Q96GD4) (Q96GD4 whole entry): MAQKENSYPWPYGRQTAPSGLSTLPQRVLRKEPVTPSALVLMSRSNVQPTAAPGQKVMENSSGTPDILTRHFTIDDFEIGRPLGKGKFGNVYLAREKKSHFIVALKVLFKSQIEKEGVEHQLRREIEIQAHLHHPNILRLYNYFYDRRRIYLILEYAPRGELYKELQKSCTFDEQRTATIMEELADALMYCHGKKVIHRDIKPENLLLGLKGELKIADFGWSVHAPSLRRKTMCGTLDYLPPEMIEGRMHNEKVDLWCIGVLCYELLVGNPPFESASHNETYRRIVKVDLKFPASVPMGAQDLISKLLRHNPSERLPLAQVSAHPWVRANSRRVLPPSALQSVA
From the text: as §1

Sequence of 363 human kinases (including Aurora A/B/C) (Homo sapiens, UniProt P27361) (P27361 whole entry): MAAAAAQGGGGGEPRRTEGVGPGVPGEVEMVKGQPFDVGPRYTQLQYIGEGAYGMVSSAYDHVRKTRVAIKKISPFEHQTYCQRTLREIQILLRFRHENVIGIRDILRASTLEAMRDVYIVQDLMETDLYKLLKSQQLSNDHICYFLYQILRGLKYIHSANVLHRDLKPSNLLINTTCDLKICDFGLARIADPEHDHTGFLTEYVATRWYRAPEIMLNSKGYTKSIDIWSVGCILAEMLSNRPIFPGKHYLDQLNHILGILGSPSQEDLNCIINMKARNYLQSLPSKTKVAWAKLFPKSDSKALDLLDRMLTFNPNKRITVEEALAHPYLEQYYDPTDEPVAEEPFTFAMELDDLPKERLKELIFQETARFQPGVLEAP
Sequence of 363 human kinases (including Aurora A/B/C) (Homo sapiens, UniProt Q5S007) (Q5S007 whole entry): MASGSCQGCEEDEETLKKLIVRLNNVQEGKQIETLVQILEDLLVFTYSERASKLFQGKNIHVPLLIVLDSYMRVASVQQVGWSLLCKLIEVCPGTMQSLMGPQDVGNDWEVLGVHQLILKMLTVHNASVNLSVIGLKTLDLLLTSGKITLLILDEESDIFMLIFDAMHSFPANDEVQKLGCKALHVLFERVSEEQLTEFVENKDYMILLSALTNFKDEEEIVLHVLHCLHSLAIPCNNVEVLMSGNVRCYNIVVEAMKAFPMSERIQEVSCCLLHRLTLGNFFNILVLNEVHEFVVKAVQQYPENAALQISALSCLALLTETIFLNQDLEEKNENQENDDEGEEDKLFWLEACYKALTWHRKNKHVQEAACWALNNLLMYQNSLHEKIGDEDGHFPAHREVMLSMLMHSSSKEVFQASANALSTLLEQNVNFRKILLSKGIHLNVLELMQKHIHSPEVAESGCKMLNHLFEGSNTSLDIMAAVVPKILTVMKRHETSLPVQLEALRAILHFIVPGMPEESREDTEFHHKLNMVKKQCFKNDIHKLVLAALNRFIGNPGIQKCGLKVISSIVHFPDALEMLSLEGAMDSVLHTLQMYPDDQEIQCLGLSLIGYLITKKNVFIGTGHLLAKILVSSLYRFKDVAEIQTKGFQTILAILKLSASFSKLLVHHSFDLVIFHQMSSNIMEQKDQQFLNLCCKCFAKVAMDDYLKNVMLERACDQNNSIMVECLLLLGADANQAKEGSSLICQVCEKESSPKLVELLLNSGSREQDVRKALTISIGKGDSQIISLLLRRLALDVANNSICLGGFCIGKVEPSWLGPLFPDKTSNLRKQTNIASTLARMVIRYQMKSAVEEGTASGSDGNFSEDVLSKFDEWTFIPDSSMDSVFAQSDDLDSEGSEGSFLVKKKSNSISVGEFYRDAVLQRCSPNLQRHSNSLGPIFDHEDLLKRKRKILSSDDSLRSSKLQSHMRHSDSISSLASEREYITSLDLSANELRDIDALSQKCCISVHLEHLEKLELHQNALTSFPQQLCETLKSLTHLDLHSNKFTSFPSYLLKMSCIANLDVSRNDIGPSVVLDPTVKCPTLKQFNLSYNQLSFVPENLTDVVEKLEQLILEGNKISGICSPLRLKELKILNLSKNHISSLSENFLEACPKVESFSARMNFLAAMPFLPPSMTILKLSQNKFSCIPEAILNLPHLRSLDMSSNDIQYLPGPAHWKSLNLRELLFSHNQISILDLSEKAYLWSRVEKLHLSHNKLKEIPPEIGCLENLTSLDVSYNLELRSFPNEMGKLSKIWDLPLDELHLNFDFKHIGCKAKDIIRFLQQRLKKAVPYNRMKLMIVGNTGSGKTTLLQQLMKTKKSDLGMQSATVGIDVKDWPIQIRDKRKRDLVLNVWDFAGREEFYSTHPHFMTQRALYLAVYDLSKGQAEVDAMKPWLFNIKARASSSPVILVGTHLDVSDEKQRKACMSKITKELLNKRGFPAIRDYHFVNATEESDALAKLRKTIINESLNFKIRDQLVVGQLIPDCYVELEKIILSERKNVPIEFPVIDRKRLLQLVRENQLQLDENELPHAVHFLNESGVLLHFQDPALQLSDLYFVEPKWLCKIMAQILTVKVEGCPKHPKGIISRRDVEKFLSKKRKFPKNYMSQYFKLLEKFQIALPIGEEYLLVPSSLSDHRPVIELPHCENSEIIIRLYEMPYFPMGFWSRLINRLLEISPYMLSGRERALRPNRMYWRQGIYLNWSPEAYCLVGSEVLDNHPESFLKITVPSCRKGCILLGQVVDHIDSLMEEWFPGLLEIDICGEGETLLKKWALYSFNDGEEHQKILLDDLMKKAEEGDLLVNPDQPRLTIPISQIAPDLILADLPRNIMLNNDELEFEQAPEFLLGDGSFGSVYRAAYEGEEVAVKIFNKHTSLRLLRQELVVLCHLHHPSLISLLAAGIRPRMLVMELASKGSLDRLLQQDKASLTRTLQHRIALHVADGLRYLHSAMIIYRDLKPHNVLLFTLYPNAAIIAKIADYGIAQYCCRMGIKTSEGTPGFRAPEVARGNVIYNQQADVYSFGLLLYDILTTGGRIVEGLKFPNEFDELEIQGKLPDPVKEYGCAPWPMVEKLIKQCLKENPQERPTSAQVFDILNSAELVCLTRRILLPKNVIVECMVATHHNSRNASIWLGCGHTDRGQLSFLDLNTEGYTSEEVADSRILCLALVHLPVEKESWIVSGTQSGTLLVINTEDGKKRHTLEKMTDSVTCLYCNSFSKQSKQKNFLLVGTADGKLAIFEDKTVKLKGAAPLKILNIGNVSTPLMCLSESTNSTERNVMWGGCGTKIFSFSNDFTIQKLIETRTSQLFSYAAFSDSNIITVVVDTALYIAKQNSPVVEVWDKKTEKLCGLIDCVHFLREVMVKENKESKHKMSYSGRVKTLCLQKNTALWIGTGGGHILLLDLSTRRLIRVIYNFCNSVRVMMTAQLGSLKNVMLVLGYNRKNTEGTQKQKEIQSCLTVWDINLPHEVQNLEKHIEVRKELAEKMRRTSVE
Sequence of 363 human kinases (including Aurora A/B/C) (Homo sapiens, UniProt P49674) (P49674 whole entry): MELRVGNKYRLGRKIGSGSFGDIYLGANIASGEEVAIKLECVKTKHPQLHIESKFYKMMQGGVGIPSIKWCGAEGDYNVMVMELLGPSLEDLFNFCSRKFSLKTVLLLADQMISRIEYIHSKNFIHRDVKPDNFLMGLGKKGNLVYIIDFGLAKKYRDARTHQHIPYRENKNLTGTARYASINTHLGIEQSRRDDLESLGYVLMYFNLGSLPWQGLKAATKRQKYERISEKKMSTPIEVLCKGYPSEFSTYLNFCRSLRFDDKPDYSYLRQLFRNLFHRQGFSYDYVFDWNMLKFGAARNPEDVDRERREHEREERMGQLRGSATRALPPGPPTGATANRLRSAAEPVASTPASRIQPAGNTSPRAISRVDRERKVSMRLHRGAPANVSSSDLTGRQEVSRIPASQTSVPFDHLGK
Sequence of 363 human kinases (including Aurora A/B/C) (Homo sapiens, UniProt Q02750) (Q02750 whole entry): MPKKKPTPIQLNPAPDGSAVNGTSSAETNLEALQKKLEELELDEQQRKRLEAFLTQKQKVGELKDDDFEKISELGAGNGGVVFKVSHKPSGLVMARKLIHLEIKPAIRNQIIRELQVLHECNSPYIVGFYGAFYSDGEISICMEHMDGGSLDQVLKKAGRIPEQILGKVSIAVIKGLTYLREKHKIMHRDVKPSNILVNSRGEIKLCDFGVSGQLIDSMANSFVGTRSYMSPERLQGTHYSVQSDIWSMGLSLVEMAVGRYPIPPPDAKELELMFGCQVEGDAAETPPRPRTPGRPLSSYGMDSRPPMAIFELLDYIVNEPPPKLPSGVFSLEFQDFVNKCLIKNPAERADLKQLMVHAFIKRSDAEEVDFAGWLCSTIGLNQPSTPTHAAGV
Sequence of 363 human kinases (including Aurora A/B/C) (Homo sapiens, UniProt Q13557) (Q13557 whole entry): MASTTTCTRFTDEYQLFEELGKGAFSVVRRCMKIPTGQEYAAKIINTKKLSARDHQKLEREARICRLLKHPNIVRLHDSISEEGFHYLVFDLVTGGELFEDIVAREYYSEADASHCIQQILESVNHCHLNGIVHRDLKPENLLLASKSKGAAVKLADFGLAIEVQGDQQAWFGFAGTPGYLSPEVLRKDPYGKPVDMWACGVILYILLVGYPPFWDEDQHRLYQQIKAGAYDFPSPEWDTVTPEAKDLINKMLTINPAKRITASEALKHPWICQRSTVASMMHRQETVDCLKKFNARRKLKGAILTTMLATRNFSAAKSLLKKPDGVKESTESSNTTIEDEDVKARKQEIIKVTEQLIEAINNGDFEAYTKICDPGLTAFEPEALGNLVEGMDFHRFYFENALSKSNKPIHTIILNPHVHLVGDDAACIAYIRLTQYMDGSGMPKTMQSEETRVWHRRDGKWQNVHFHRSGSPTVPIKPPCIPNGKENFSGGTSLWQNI

SMILES	remaining activity at 0.1 µM [1] [%]	remaining activity at 0.1 µM [2] [%]	remaining activity at 0.1 µM [3] [%]	remaining activity at 0.1 µM [4] [%]	remaining activity at 0.1 µM [5] [%]	remaining activity at 0.1 µM [6] [%]	remaining activity at 0.1 µM [7] [%]	remaining activity at 0.1 µM [8] [%]	remaining activity at 0.1 µM [9] [%]	remaining activity at 0.5 µM ([1]; 500 nM) [%]	remaining activity at 0.5 µM ([2]; 500 nM) [%]	remaining activity at 0.5 µM ([3]; 500 nM) [%]	remaining activity at 0.5 µM ([4]; 500 nM) [%]	remaining activity at 0.5 µM ([5]; 500 nM) [%]	remaining activity at 0.5 µM ([6]; 500 nM) [%]	remaining activity at 0.5 µM ([7]; 500 nM) [%]	remaining activity at 0.5 µM ([8]; 500 nM) [%]	other results
CCn1cc(-c2ccnc3[nH]c(-c4cccc(CN(C)C)c4)cc23)c(-c2ccc(NC(=O)N(C)C)cc2)n1 [GSK1070916]	109	95.8	102	114	94.6	102	92.1	85.9	12.8									
O=C(O)[C@]1(Cc2cccc(Nc3nccs3)n2)CC[C@@H](Oc2cccc(Cl)c2F)CC1 [MK-5108]	88.9	98.1	93.4	105	101	97.3	52.7	95.8	9.6	107	91.5	96.2	115	98.6	99.7	14.2	82.2	remaining activity at 0.5 µM [9]: 2.85%
O=C(c1cccc(Cl)c1F)N1CCN(Cc2cccc(Nc3nccs3)n2)CC1 [MK-8745]										102	94.9	97	115	98.5	103	92.8	98.2	% Enzyme Activity (relative to DMSO controls) ([1]; 500 nM): 100.59%; % Enzyme Activity (relative to DMSO controls) ([2]; 500 nM): 93.98%; % Enzyme Activity (relative to DMSO controls) ([3]; 500 nM): 96.32%; % Enzyme Activity (relative to DMSO controls) ([4]; 500 nM): 114.90%; % Enzyme Activity (relative to DMSO controls) ([5]; 500 nM): 97.95%; % Enzyme Activity (relative to DMSO controls) ([6]; 500 nM): 102.40%; % Enzyme Activity (relative to DMSO controls) ([7]; 500 nM): 88.73%; % Enzyme Activity (relative to DMSO controls) ([8]; 500 nM): 97.71%; % Enzyme Activity (relative to DMSO controls) ([9]; Aurora B, [ATP] 100 µM, 500 nM): 59.14%; remaining activity at 0.5 µM ([9]; Aurora B, [ATP] 100 µM, 500 nM): 62.3%
